Assay results reported in patent US12486284B2, “Ubiquitin-specific protease inhibitor and preparation method therefor and use thereof” (CHASER THERAPEUTICS, INC., priority 2019, dated 2025).
Like-named read-outs stand apart in the source and are kept apart here.

Assays:
USP28 = molecular target: T1, USP28 (Homo sapiens, UniProt Q96RU2); assay: USP28 activity measured using ubiquitin-rhodamine 110 method; type: biochemical; conditions: for IC50: purified USP28 4 nM, ubiquitin-rhodamine 110 125 nM, 30 min preincubation; for IC50(F)/IC50(E) USP28: ratio of IC50 of related 3-NH2 compound (F) to IC50 of 3-NHMe compound disclosed herein (E)
T1 construct: purchased R&D Systems
T1 sequence (Q96RU2 1-1077): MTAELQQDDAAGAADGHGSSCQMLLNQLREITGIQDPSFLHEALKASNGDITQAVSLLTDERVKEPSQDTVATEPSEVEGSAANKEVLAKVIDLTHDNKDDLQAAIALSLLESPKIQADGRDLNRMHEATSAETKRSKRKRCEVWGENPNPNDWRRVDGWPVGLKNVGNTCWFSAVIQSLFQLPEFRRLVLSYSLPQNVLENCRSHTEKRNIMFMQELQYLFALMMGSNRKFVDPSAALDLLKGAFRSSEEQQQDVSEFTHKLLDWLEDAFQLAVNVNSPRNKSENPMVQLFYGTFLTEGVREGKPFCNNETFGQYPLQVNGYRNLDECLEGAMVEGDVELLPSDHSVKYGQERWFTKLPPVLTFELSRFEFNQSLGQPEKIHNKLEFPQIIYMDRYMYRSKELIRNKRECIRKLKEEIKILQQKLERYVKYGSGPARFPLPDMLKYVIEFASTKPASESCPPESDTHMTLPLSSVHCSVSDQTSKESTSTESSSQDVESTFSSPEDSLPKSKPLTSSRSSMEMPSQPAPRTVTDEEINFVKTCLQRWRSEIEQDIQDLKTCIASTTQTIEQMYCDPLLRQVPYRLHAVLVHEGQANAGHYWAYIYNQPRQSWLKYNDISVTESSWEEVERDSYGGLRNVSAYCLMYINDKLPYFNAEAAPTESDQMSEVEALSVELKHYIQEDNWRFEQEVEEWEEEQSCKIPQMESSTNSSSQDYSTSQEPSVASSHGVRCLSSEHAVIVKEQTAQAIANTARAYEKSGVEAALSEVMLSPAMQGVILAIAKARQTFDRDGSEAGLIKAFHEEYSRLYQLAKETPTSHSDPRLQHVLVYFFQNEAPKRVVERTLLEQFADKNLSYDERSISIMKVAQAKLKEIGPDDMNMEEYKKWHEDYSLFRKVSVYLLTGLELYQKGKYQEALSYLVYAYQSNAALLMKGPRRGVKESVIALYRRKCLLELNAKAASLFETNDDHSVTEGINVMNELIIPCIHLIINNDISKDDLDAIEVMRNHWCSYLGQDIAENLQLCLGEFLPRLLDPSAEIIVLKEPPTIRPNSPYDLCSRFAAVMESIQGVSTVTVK
Method: USP28 activity was measured using ubiquitin-rhodamine 110 method.
(§1) Purified USP28 and the ubiquitin-rhodamine 110 substrate used for measuring DUBs activity were both from R&D Systems. Test compounds were first dissolved in DMSO to prepare a 10 mM stock solution, and then the stock solution was diluted with a buffer solution [containing 20 mM Tris-HCl (pH 8.0), 2 mM CaCl2), 3 mM BME, 0.01% Prionix, 0.01% Triton X-100] to the desired concentration (with DMSO content less than or equal to 0.5%). The dilution was mixed well with USP28 (final concentration 4 nM) in a 96-well plate and incubated at room temperature for 30 min, and then added with the substrate (ubiquitin-rhodamine 110) to 125 nM. The final volume of the whole reaction system was 20 μL. The released fluorescence (excitation wavelength 485 nm, emission wavelength 535 nm) was detected immediately on a microplate reader after the addition of the substrate. The inhibitory rate of the test compound against USP28 was calculated according to the following formula: Inhibition %=1−[(test compound+fluorescence value of substrate−fluorescence value of test compound (no substrate))/mean fluorescence value of DMSO control group−fluorescence value of test compound (no substrate)]
According to the inhibitory rates of the test compound against USP28 under different concentrations, IC50 was calculated.

USP25 = molecular target: T2, USP25 (Homo sapiens, UniProt Q9UHP3); assay: USP25 activity measured using ubiquitin-rhodamine 110 method; type: biochemical; conditions: for IC50: purified USP25 15 nM, ubiquitin-rhodamine 110 125 nM, 30 min preincubation; for IC50(F)/IC50(E) USP25: ratio of IC50 of related 3-NH2 compound (F) to IC50 of 3-NHMe compound disclosed herein (E)
T2 construct: purchased R&D Systems
T2 sequence (Q9UHP3 1-1055): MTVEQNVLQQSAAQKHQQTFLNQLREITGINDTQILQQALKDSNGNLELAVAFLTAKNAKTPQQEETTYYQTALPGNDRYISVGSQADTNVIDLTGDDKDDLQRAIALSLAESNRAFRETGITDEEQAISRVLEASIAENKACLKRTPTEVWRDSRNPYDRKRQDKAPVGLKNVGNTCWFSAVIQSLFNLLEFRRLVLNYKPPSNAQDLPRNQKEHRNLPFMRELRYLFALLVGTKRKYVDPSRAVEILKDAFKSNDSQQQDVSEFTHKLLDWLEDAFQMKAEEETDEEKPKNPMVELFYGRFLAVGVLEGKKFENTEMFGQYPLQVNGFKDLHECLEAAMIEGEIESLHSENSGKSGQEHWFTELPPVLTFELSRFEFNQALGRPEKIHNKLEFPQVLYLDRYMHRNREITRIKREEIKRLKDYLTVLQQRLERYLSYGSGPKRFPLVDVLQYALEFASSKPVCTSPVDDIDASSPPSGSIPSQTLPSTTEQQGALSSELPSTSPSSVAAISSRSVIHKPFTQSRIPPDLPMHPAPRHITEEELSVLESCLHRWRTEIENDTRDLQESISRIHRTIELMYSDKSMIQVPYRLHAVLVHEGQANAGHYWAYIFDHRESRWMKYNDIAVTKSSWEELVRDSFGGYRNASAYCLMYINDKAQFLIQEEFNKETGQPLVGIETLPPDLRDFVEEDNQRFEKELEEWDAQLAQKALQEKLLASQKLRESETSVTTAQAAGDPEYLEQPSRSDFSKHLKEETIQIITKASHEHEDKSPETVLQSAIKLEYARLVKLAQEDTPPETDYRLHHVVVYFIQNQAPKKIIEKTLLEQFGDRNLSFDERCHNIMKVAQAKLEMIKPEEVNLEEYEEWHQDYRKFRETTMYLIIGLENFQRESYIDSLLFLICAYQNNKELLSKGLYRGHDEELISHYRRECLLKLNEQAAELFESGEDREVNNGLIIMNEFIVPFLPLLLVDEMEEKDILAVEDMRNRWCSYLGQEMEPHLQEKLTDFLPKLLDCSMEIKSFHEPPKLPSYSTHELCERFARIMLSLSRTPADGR
Method: USP25 activity was measured using ubiquitin-rhodamine 110 method.
as §1, with “Purified USP25” for “Purified USP28”, “with USP25” for “with USP28”, “concentration 15” for “concentration 4”, “the substrate, and the” for “the substrate. The”, “against USP25” for “against USP28”
As in Example 11, according to the inhibitory rates of the test compound against USP25 under different concentrations, IC50 was calculated.

[1] = Inhibitory activity against USP28 (IC50)
[2] = read-out: Inhibitory activity against USP25 (IC50)
[3] = read-out: Inhibitory activity against USP28 (IC50)
[4] = Inhibitory activity against USP25 (IC50)

Row | Structure (SMILES) | IC50 (USP28; [1]) [µM] | IC50 (USP25; [2]) [µM] | IC50 (USP28; [3]) [µM] | IC50(F)/IC50(E) USP28 (USP28) | IC50 (USP25; [4]) [µM] | IC50(F)/IC50(E) USP25 (USP25)
1 | CNc1c(C(=O)NC2COc3cc(N4CC5CCC(C4)N5)ccc3C2)sc2nc(C)cnc12 (single isomer, unassigned) [Compound I-87] | < 0.1 | 0.1 to 1 | – | – | – | –
2 | CNc1c(C(=O)NC2COc3cc(N4CC5CCC(C4)N5)ccc3C2)sc2nc(C)cnc12 (single isomer, unassigned) [Compound I-88] | – | 1 to 5 | 1 to 5 | – | – | –
3 | CNc1c(C(=O)NCCc2ccc(N3C[C@H]4CC[C@@H](C3)N4)cc2)sc2nc(C)ccc12 [Compound I-1, N-4-(3,8-diazabicyclo[3.2.1]octan-3-yl)phenethyl-6-methyl-3-methylaminothiophene[2,3-b]pyridine-2-carboxamide] | < 0.1 | – | – | 18.75 | < 0.1 | >20
4 | CNc1c(C(=O)NCCc2ccc(N3CCNCC3)cc2)sc2nc(C)ccc12 [Compound I-2] | – | 0.1 to 1 | 0.1 to 1 | – | – | –
5 | CNc1c(C(=O)NCCc2ccc(C3CCNCC3)cc2)sc2nc(C)ccc12 [Compound I-3] | – | 0.1 to 1 | < 0.1 | – | – | –
6 | CNc1c(C(=O)NCCc2ccc(C3CC4CCC(C3)N4)cc2)sc2nc(C)ccc12 (stereo not shown) [Compound I-4] | < 0.1 | – | – | – | < 0.1 | –
7 | CNc1c(C(=O)NCCc2ccc(C3C4CCC3CNC4)cc2)sc2nc(C)ccc12 (stereo not shown) [Compound I-5] | – | < 0.1 | < 0.1 | – | – | –
8 | CNc1c(C(=O)NCCc2ccc(N3C4CCC3CNC4)cc2)sc2nc(C)ccc12 [Compound I-6] | < 0.1 | – | – | – | < 0.1 | –
9 | CNc1c(C(=O)NCCc2ccc(C3CC4CC3CN4)cc2)sc2nc(C)ccc12 (stereo not shown) [Compound I-7] | – | 0.1 to 1 | < 0.1 | – | – | –
10 | CNc1c(C(=O)NCCc2ccc(N3CC4CC3CN4)cc2)sc2nc(C)ccc12 (stereo not shown) [Compound I-8] | – | < 0.1 | < 0.1 | – | – | –
11 | CNc1c(C(=O)NCCc2ccc(N3C[C@H]4CC[C@@H](C3)N4)cc2)sc2ncccc12 [Compound I-9] | < 0.1 | 0.1 to 1 | – | 9.2 | – | >10
12 | CCc1ccc2c(NC)c(C(=O)NCCc3ccc(N4C[C@H]5CC[C@@H](C4)N5)cc3)sc2n1 [Compound I-10] | < 0.1 | 1 to 5 | – | – | – | –
13 | CCCc1ccc2c(NC)c(C(=O)NCCc3ccc(N4C[C@H]5CC[C@@H](C4)N5)cc3)sc2n1 [Compound I-11] | < 0.1 | > 10 | – | – | – | –
14 | CNc1c(C(=O)NCCc2ccc(N3C[C@H]4CC[C@@H](C3)N4)cc2)sc2nc(C(C)C)ccc12 [Compound I-12] | < 0.1 | 5 to 10 | – | – | – | –
15 | CCCCc1ccc2c(NC)c(C(=O)NCCc3ccc(N4C[C@H]5CC[C@@H](C4)N5)cc3)sc2n1 [Compound I-13] | < 0.1 | > 10 | – | – | – | –
16 | CNc1c(C(=O)NCCc2ccc(N3C[C@H]4CC[C@@H](C3)N4)cc2)sc2nc(CC(C)C)ccc12 [Compound I-14] | < 0.1 | > 10 | – | – | – | –
17 | CNc1c(C(=O)NCCc2ccc(N3C[C@H]4CC[C@@H](C3)N4)cc2)sc2nc(C3CC3)ccc12 [Compound I-15] | < 0.1 | 1 to 5 | – | – | – | –
18 | CNc1c(C(=O)NCCc2ccc(N3C[C@H]4CC[C@@H](C3)N4)cc2)sc2nc(C(F)(F)F)ccc12 [Compound I-16] | – | 1 to 5 | 0.1 to 1 | – | – | –
19 | CNc1c(C(=O)NCCc2ccc(N3C[C@H]4CC[C@@H](C3)N4)cc2)sc2nc(OC)ccc12 [Compound I-17] | – | 0.1 to 1 | 0.1 to 1 | – | – | –
20 | CNc1c(C(=O)NCCc2ccc(N3C[C@H]4CC[C@@H](C3)N4)cc2)sc2ncc(F)cc12 [Compound I-18] | – | > 10 | 0.1 to 1 | – | – | –
21 | CNc1c(C(=O)NCCc2ccc(N3C[C@H]4CC[C@@H](C3)N4)cc2)sc2ncc(C)cc12 [Compound I-19] | – | > 10 | 1 to 5 | – | – | –
22 | CNc1c(C(=O)NCCc2ccc(N3C[C@H]4CC[C@@H](C3)N4)cc2)sc2nccc(C)c12 [Compound I-20] | – | 0.1 to 1 | 0.1 to 1 | – | – | –
23 | CNc1c(C(=O)NCCc2ccc(N3C[C@H]4CC[C@@H](C3)N4)cc2)sc2nccc(C(F)(F)F)c12 [Compound I-21] | – | 1 to 5 | 0.1 to 1 | – | – | –
24 | CNc1c(C(=O)NCCc2ccc(N3C[C@H]4CC[C@@H](C3)N4)cc2)sc2nc(CO)ccc12 [Compound I-22] | – | 0.1 to 1 | 0.1 to 1 | – | – | –
25 | CCNc1c(C(=O)NCCc2ccc(N3C[C@H]4CC[C@@H](C3)N4)cc2)sc2nc(C)ccc12 [Compound I-23] | – | 5 to 10 | 0.1 to 1 | – | – | –
26 | CCCNc1c(C(=O)NCCc2ccc(N3C[C@H]4CC[C@@H](C3)N4)cc2)sc2nc(C)ccc12 [Compound I-24] | – | > 10 | 0.1 to 1 | – | – | –
27 | Cc1ccc2c(NCCN(C)C)c(C(=O)NCCc3ccc(N4C[C@H]5CC[C@@H](C4)N5)cc3)sc2n1 [Compound I-25] | – | > 10 | 5 to 10 | – | – | –
